Bounds are passed on as bounds.

The values that follow come from ChEMBL document CHEMBL4483862, “Open-source discovery of chemical leads for next-generation chemoprotective antimalarials” (2018).

In this test the test system is Plasmodium berghei. In words: Luciferase/luciferin-expressing antifolate-resistant parasites were used to infect a culture of HepG2 cells that were pre-incubated with compounds. Infected hepatocytes emit light due to the luciferase reaction. Assay results are presented as the percent inhibition of light emission compared to control. […]. To be noted: sporozoite; for IC90: read-out: LUCIFERASE INFECTION ASSAY - IC90. The format is functional.

The mark [1] stands for this setting: read-out: LUCIFERASE INFECTION ASSAY - IC50.

On to `Cc1[nH]ncc1CCCNc1nc(-c2ccsc2)nc2ccccc12`, for which the IC90 was over 10 µM. Besides, where the note is “PBLUC_HILL_SLOPE 1.72, 3.12, PBLUC_R_SQUARED 0.159, 0.360, read-out: LUCIFERASE INFECTION ASSAY - IC50”, the IC50 was 5.35 µM.

For the molecule `CC(C)N1CCC(C)(C(=O)Nc2ccc3c(c2)C(=O)N(C)C3=O)C1` (stereo not drawn), the IC90 was over 10 µM. The IC50 under setting [1] is over 10 µM.

On to `CN1N=C2c3ccccc3CCC2C1c1ccc(F)cc1` (stereo not drawn), for which the IC90 is 5.64 µM. Also, the IC50 (PBLUC_HILL_SLOPE 1.42, PBLUC_R_SQUARED 0.884, read-out: LUCIFERASE INFECTION ASSAY - IC50) was found to be 1.2 µM.

Regarding `COc1cccc(N2C(=O)CC(n3nc(Nc4cccc(C)c4)sc3=S)C2=O)c1` (stereo not drawn), the IC90 was over 10 µM. Besides, the IC50 under setting [1] is over 10 µM.

With `O=C1C=CC(=O)N1Cc1cccs1`, the IC90 was 7.49 µM. Moreover, where the note is “HEPG2TOX_HILL_SLOPE 35.1, HEPG2TOX_R_SQUARED 0.828, PBLUC_HILL_SLOPE 12.7, PBLUC_R_SQUARED 0.168, read-out: LUCIFERASE INFECTION ASSAY - IC50”, the 50% inhibitory concentration (IC50) amounted to 6.3 µM.

Take `O=c1c2ccccc2cnn1-c1nc2ccccc2[nH]1`: the IC90 is over 10 µM. For the same molecule, the IC50 (HEPG2TOX_HILL_SLOPE 1.61, HEPG2TOX_R_SQUARED 0.823, PBLUC_HILL_SLOPE 0.454, PBLUC_R_SQUARED 0.451, read-out: LUCIFERASE INFECTION ASSAY - IC50) was 4.95 µM.

As to `Nc1ccc(-c2cn3c(-c4ccc(Oc5ccccc5)cc4)cnc3cn2)cn1`, the IC90 is over 8.7 µM. For the same molecule, the IC50 (HEPG2TOX_HILL_SLOPE 7.27, HEPG2TOX_R_SQUARED 0.167, PBLUC_HILL_SLOPE 11.9, PBLUC_R_SQUARED 0.186, read-out: LUCIFERASE INFECTION ASSAY - IC50) was determined as 7.28 µM.

Take `Cc1c(C(=O)N2CCN(c3cc(C#N)ccn3)CC2)[nH]c2c1C(=O)CCC2`: the IC90 was over 10 µM. For the same molecule, under “HEPG2TOX_HILL_SLOPE 7.54, HEPG2TOX_R_SQUARED 0.56, read-out: LUCIFERASE INFECTION ASSAY - IC50”, the IC50 was over 10 µM.

`COc1cc(-c2nc3ccc(NC(=O)Nc4cccc(C(C)=O)c4)cn3n2)cc(OC)c1OC`: the IC90 is 1.53 µM. Further, the IC50 (HEPG2TOX_HILL_SLOPE 3.38, HEPG2TOX_R_SQUARED 0.754, PBLUC_HILL_SLOPE 9.64, PBLUC_R_SQUARED 0.711, read-out: LUCIFERASE INFECTION ASSAY - IC50) turned out to be 1.21 µM.

Consider `COc1ccc(-c2cc(CN(C)c3ccc(S(=O)(=O)NC(C)(C)C)cc3[N+](=O)[O-])on2)cc1`, for which the IC90 came out at 4.2 µM. In addition, the IC50 (HEPG2TOX_HILL_SLOPE 80.3, HEPG2TOX_R_SQUARED 0.674, PBLUC_HILL_SLOPE 12.7, PBLUC_R_SQUARED 0.427, read-out: LUCIFERASE INFECTION ASSAY - IC50) was 3.54 µM.

As for `COc1ccc(-c2ccc3nnc(-c4cscn4)n3c2)c(C)c1`, the IC90 was over 10 µM. The IC50 under setting [1] was over 10 µM.

In the case of `COc1cccc(-c2cc(=O)n3c(nc4ccccc43)[nH]2)c1`, the IC90 was over 11.3 µM. Also, under setting [1], the IC50 was over 11.3 µM.

With `CC(OC(=O)[C@@H](Nc1ccc(C(F)(F)F)cc1Cl)C(C)C)C(=O)NC(=O)NC1CCCCC1` (stereo partly drawn), the IC90 stood at 6.57 µM. Moreover, where the note is “FFLUC_HILL_SLOPE 12, FFLUC_R_SQUARED 0.576, PBLUC_HILL_SLOPE 4.18, PBLUC_R_SQUARED 0.859, read-out: LUCIFERASE INFECTION ASSAY - IC50”, the IC50 worked out at 3.88 µM.

`CC(C)CC(NC(=O)c1ccc(C#N)cc1)c1ccccc1` (stereo not drawn): the concentration for an effect of 90% (IC90) came to 9.52 µM. Also, under “PBLUC_HILL_SLOPE 10.9, 7.64, PBLUC_R_SQUARED 0.439, 0.355, read-out: LUCIFERASE INFECTION ASSAY - IC50”, the IC50 stood at 8.11 µM.

On to `CC(=O)Nc1cccc(-c2cn3c(-c4ccc5ncccc5c4)cnc3cn2)c1`, for which the IC90 was over 8.7 µM. Besides, the IC50 (PBLUC_HILL_SLOPE 2.19, PBLUC_R_SQUARED 0.526, read-out: LUCIFERASE INFECTION ASSAY - IC50) amounted to 5.14 µM.

For the molecule `CC(C)(C)c1ccc(/C=C2\CCCc3c2nc2ccccc2c3C(=O)OCC(=O)N2CCOCC2)cc1`, the IC90 was over 10 µM. The IC50 under setting [1] was found to be 8.09 µM.

On to `Cc1cc(/C=C(\C#N)C(=O)OCc2ccccn2)c(C)n1CC(C)C`, for which the IC90 was over 10 µM. Moreover, for the setting “PBLUC_HILL_SLOPE 0.483, PBLUC_R_SQUARED 0.335, read-out: LUCIFERASE INFECTION ASSAY - IC50”, the IC50 is 6.62 µM.

Take `O=C(CN1CCN(C(=O)c2ccccc2COc2ccccc2)CC1)Nc1ccccc1Cl`: the IC90 is over 10 µM. In addition, the IC50 under setting [1] is over 10 µM.

Turning to `O=C(CSc1nnc(-c2c[nH]c3ccccc23)n1C1CC1)NC1CCN(Cc2ccccc2)C1` (stereo not drawn), the IC90 worked out at 8.82 µM. Also, under “PBLUC_HILL_SLOPE 3.03, PBLUC_R_SQUARED 0.422, read-out: LUCIFERASE INFECTION ASSAY - IC50”, the IC50 stood at 4.27 µM.

On to `Clc1ccc(-c2csc3ncnc(NCc4ccc(N5CCOCC5)nc4)c23)cc1`, for which the IC90 was over 10 µM. The IC50 (HEPG2TOX_HILL_SLOPE 1.06, HEPG2TOX_R_SQUARED 0.974, PBLUC_HILL_SLOPE 2.24, PBLUC_R_SQUARED 0.328, read-out: LUCIFERASE INFECTION ASSAY - IC50) is 5.51 µM.

Consider `CN(C)c1ccc(-c2cnn3c(Nc4ccc(Oc5ccccc5)cc4)ccnc23)cc1`, for which the IC90 was over 7.83 µM. The IC50 (PBLUC_HILL_SLOPE 2.36, PBLUC_R_SQUARED 0.164, read-out: LUCIFERASE INFECTION ASSAY - IC50) turned out to be 6.65 µM.

On to `CCN(CC)S(=O)(=O)c1cc([N+](=O)[O-])ccc1NN=CC1C(=O)N(c2ccc(C)cc2)C(=O)c2ccccc21` (stereo not drawn), for which the IC90 was over 10 µM. The IC50 (FFLUC_HILL_SLOPE 3.56, FFLUC_R_SQUARED 0.6, HEPG2TOX_HILL_SLOPE 2.69, HEPG2TOX_R_SQUARED 0.936, PBLUC_HILL_SLOPE 15.5, PBLUC_R_SQUARED 0.0701, read-out: LUCIFERASE INFECTION ASSAY - IC50) worked out at 9.71 µM.

Turning to `CCCNS(=O)(=O)c1cccc(C(=O)N2CCN(c3cccc(OC)c3)CC2)c1`, the IC90 is over 10 µM. Also, the IC50 (HEPG2TOX_HILL_SLOPE 3.58, HEPG2TOX_R_SQUARED 0.848, read-out: LUCIFERASE INFECTION ASSAY - IC50) is over 10 µM.

In the case of `O=C(COc1nnc2ccccn12)Nc1cccc2ccccc12`, the IC90 was over 10 µM. For the same molecule, the IC50 under setting [1] was over 10 µM.

With `Cc1ccc2c(Cl)cc(Cl)c(OCC(=O)c3c[nH]c(C(=O)N4CCCC4)c3)c2n1`, the IC90 came out at 8.53 µM. Also, the IC50 (HEPG2TOX_HILL_SLOPE 1.13, HEPG2TOX_R_SQUARED 0.949, PBLUC_HILL_SLOPE 1.15, PBLUC_R_SQUARED 0.754, read-out: LUCIFERASE INFECTION ASSAY - IC50) is 1.25 µM.

As to `CNS(=O)(=O)c1cc(NS(=O)(=O)/C=C/c2ccccc2)ccc1C`, the IC90 was over 10 µM. Also, the IC50 under setting [1] was over 10 µM.

For `COc1cc2c(cc1OC)C(c1cccs1)N(C(=O)CC1CCCC1)CC2` (stereo not drawn), the IC90 is over 10 µM. Under “FFLUC_HILL_SLOPE 12.1, FFLUC_R_SQUARED 0.331, HEPG2TOX_HILL_SLOPE 1.22, HEPG2TOX_R_SQUARED 0.987, PBLUC_HILL_SLOPE 1.62, PBLUC_R_SQUARED 0.49, read-out: LUCIFERASE INFECTION ASSAY - IC50”, the IC50 was 2.88 µM.

With `O=C1Nc2ccc(Br)cc2/C1=N\N=C\c1cc([N+](=O)[O-])ccc1OC(F)F`, the IC90 is over 10 µM. The IC50 under setting [1] is over 10 µM.

`CC(C)(C)c1ccccc1NC(=O)c1csc(N2CCN(CCc3ccccc3)C2=O)n1`: the IC90 is over 10 µM. Where the note is “PBLUC_HILL_SLOPE 20.4, PBLUC_R_SQUARED 0.59, read-out: LUCIFERASE INFECTION ASSAY - IC50”, the IC50 is 9.01 µM.

Turning to `CCOc1ccc2c(c1)O/C(=C\c1cc(Cl)cc3c1OCOC3)C2=O`, the IC90 stood at 6.53 µM. The IC50 (HEPG2TOX_HILL_SLOPE 2.45, HEPG2TOX_R_SQUARED 0.948, PBLUC_HILL_SLOPE 1.42, PBLUC_R_SQUARED 0.8, read-out: LUCIFERASE INFECTION ASSAY - IC50) turned out to be 1.39 µM.

For `O=C1CN(c2ccc(NC(=O)CCc3ccco3)cn2)CCN1`, the IC90 is over 10 µM. Under setting [1], the IC50 was over 10 µM.

On to `O=C1NC(c2ccccc2)=C(c2nc3ccccc3s2)C(c2cccs2)N1` (stereo not drawn), for which the IC90 was over 10 µM. For the same molecule, for the setting “FFLUC_HILL_SLOPE 4.26, FFLUC_R_SQUARED 0.397, PBLUC_HILL_SLOPE 0.406, PBLUC_R_SQUARED 0.487, read-out: LUCIFERASE INFECTION ASSAY - IC50”, the IC50 was found to be 3.85 µM.

Turning to `NNc1cc(C(F)(F)F)nc(C(F)(F)F)c1`, the IC90 worked out at 13 µM. Besides, for the setting “PBLUC_HILL_SLOPE 17.4, PBLUC_R_SQUARED 0.11, read-out: LUCIFERASE INFECTION ASSAY - IC50”, the IC50 is 11.5 µM.

On to `Clc1cc(Cl)cc(NCc2ccc3c(c2)OCO3)c1`, for which the IC90 was over 11.1 µM. For the same molecule, the IC50 under setting [1] was over 11.1 µM.

For the molecule `CCC(C)(C)c1ccc(Oc2ccc(NC(=O)Nc3ccccc3OC)cc2)cc1`, the IC90 was 5.8 µM. The IC50 (HEPG2TOX_HILL_SLOPE 7.52, 1.98, HEPG2TOX_R_SQUARED 0.307, 0.635, PBLUC_HILL_SLOPE 2.78, 0.762, PBLUC_R_SQUARED 0.525, 0.659, read-out: LUCIFERASE INFECTION ASSAY - IC50) was found to be 1.08 µM.

`COc1cccc(CN2CCC2(C)C(=O)Nc2ccccc2Cc2ccccc2)c1OC` (stereo not drawn): the IC90 is over 7.66 µM. The IC50 under setting [1] is over 7.66 µM.

`O=C(Nc1cc(C(F)(F)F)cc(C(F)(F)F)c1)c1cnn(-c2ccccc2)c1C(F)(F)F`: the IC90 is over 7.06 µM. Also, the IC50 under setting [1] is over 7.06 µM.

`CC(C)CNC(=O)CN1CCN(c2nc(-c3cccs3)nc3sc4c(c23)CCC4)CC1`: the IC90 was 3.94 µM. Besides, under setting [1], the IC50 came out at 3.4 µM.

On to `CCc1ccccc1NCC(=O)Nc1cc(Cl)ccc1-n1cncn1`, for which the IC90 was over 10 µM. The IC50 under setting [1] was over 10 µM.

Usually IC50 stands for the concentration that gives 50% inhibition. A word on the IC90: it is the point of the concentration-response curve where the effect stands at 90%.
